Measured values as given in ChEMBL document CHEMBL5252648, “Design, synthesis and bioactivity evaluation of a series of quinazolinone derivatives as potent PI3Kγ antagonist” (Bioorg Med Chem, 2023).
The source made the active and inactive calls. The rule behind the calls is not given here.

Assays:
Huh-7 = assay: Cytotoxicity against human Huh-7 cells assessed as reduction in cell viability incubated for 24 hrs by CCK-8 assay; assay type: functional, cell-based; details: Huh-7, 24 h
Jurkat [1] = assay: Induction of apoptosis against human Jurkat cells assessed as viable cells at 1 uM measured for 24 hrs by Annexin V-FITC/propidium iodide staining based flow cytometry (reference value: 94.2 %); assay type: functional; details: read-out: Activity
[2] = biological target: Serine/threonine-protein kinase AKT (Homo sapiens) (UniProt P31751+Q9Y243+P31749); assay: Inhibition of AKT phosphorylation in human THP-1 cells at 1 uM incubated for 1 to 12 hrs by Western blot analysis relative to control; assay type: cell-based; details: time 1-12 hrs
Jurkat [3] = assay: Upregulation of phosphorylated ERK1/2 protein expression in human Jurkat cells measured for 3 hrs; assay type: functional, cell-based; details: dose 0.1-10 µM

Serine/threonine-protein kinase AKT (Homo sapiens), sequence (P31749 whole entry, looked up): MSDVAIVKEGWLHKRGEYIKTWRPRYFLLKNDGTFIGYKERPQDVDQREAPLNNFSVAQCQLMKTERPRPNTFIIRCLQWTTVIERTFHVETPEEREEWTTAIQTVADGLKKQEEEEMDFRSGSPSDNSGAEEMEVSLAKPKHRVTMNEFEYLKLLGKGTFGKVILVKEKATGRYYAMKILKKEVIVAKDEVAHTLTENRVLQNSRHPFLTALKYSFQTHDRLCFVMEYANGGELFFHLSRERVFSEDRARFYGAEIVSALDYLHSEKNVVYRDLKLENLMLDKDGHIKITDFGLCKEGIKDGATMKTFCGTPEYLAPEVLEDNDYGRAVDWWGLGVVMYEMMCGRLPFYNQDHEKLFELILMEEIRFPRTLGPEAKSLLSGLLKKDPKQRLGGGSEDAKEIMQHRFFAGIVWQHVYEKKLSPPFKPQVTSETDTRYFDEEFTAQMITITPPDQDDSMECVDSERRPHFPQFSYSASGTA
Serine/threonine-protein kinase AKT (Homo sapiens), sequence (P31751 whole entry, looked up): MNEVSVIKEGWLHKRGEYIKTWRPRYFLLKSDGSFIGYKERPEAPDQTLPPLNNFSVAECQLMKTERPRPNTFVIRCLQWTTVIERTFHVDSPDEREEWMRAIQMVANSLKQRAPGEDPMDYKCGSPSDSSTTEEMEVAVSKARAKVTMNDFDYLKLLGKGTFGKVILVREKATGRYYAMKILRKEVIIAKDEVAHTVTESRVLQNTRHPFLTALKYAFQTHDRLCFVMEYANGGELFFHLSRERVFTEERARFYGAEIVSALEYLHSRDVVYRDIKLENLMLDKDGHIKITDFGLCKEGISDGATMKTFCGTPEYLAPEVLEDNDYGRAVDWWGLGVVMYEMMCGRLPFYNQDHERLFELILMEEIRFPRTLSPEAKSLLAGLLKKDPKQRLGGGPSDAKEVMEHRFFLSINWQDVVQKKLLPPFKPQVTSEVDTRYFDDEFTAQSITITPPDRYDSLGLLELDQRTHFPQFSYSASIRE
Serine/threonine-protein kinase AKT (Homo sapiens), sequence (Q9Y243 whole entry, looked up): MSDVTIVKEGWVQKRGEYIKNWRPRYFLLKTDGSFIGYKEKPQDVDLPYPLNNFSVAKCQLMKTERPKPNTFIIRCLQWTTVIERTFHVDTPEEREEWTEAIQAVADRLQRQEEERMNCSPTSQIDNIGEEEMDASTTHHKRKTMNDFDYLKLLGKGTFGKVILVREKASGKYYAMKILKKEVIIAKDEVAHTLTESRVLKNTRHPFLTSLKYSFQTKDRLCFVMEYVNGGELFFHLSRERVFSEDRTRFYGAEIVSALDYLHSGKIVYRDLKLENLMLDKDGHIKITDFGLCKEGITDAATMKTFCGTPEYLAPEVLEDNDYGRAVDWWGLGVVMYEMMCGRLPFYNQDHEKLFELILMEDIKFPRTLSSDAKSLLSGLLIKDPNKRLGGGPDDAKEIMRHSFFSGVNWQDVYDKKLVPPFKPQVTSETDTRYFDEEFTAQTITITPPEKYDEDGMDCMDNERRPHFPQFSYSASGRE

## COc1ccc(C#Cc2cccc3cc(C(C)Nc4ncnc5[nH]cnc45)n(-c4ccccc4)c(=O)c23)cc1 (centres undefined)
Huh-7
  IC50: 5.05 µM
Jurkat [1]
  viability at 1 µM: 82.3%
[2]
  inhibition: Active
Jurkat [3]
  Activity: Dose-Dependent Effect
